Laboratory results taken from US20240207212A1, “METHODS AND COMPOSITIONS FOR TREATING INFLAMMATION” (priority 2017, published 2024).

Legend:
P-gp = P-gp (Homo sapiens, UniProt P08183); experiment: Semi-quantitative MS analysis of enriched AMEND preparations from control and P-gp knockdown T84 cells; conditions: for Average (relative abundance, normalized to anandamide-d8 standard): anandamide-d8 standard at 1 μg/μL
Excerpt: Generation of P-gp knockdown T84 cell lines. Purified DNA containing shRNA constructs targeting the mdr1a gene in a pLK0.1 plasmid background was obtained from the UMass RNAi core. Constructs were as follows: B4 (Clone ID: TRCN0000059683), B5 (Clone ID: TRCN0000059684), B6 (Clone ID: TRCN0000059685), B7 (Clone ID: TRCN0000059686), B8 (Clone ID: TRCN0000059687). Lentiviruses were produced by transfecting packaging cells (293T) with psPAX2, pMD.2G, and pLK0.1 plasmid constructs, using Trans-IT-LT1 lipid (Mirus Bio). After 48 hours, lentiviral supernatants were harvested, combined with 8 μg/mL polybrene (Sigma-Aldrich) and applied to T84 cells in 20% confluent monolayers. This process was repeated 24 hours later, and 48 hours following the second transfection, resistant cells were selected with 5 μg/mL puromycin.
Production of enriched AMEND. T84 cells were grown as confluent monolayers in 162 cm^2 flasks and equilibrated in Hanks Buffered Saline Solution with Mg^2+/Ca^2+ (HBSS+/+) at 37° C., 5% CO2. […] Cell supernatants collected over the course of five hours were pooled from 30 flasks, lyophilized, resuspended in water and ultrafiltered through Amicon 1,000-Da cutoff membrane (Millipore) with N2 positive pressure. Samples were captured on a C18 Bakerbond® SepPak column, washed with water and hexane, eluted with methanol, dried under N2 gas and stored at −80° C. Before use in migration experiments, samples were resuspended in HBSS+/+as needed. For screening in the DiscoveRx GPCR β-arrestin activity assay (Fremont, CA), samples were resuspended in PBS to provide a 1000× solution for screening.
LC/MS analysis of AMEND. MeOH-eluted preparations as above were dried under a stream of N2 (g), re-suspended in MeOH/buffer and separated by HPLC using a Vydac (Hesperia, CA) C18 (10 um; 300 Å) semi-preparative column ([…]). Active AMEND fractions were characterized by HPLC/Mass spectrometry (Genesis C18 (4 um, 120 Å) analytical HPLC column (4.6×150 mm) equilibrated with 5 mM triethylamine acetic acid (pH 7.2) with the effluent analyzed by using a Finnigan LCQDeca electrospray mass spectrometer.
Selected samples were analyzed for high mass accuracy determination and solubilized in 50:50 acetonitrile:H2O with 0.2% formic acid. A MAXIS-HD ultra-high resolution quadrupole time-of-flight (UHR-ESI-QTOF) mass spectrometer (Bruker Daltonik GmbH, Bremen, Germany) was used; this was coupled to a syringe driver (Hamilton, Bonaduz, Switzerland) with the sample solution being infused at a rate of 3 μL/min.
Nitrogen acted as the nebulizing gas, applied at a pressure of 2 bar. The drying gas was also nitrogen, supplied at a flow rate of 8 L/min and a temperature of 200° C. Positive ion mode was used with a corresponding capillary voltage of −4500V. Only full scan data was acquired. For each batch of samples a solution of 5 mM sodium formate clusters was also analysed. This acted as an external data file calibrant over the mass range 75-1000 m/z. The recalibrated detected mass and isotope pattern were used in the FindFormula tool to generate a list of potential theoretical formulae within 2 mDa of the detected mass. The detected isotope pattern was used to sort this list.
Data acquisition and automated processing was controlled via Compass OpenAccess 1.7 software (Bruker Daltonik GmbH, Bremen, Germany), and data processing was carried out using DataAnalysis 3.4 (Bruker Daltonik GmbH, Bremen, Germany). At each step care was taken to avoid sample degradation and oxidation by maintaining them on ice and under N2 gas as much as possible. Relative quantification by ion intensities was performed by the summation of intensities for protonated and sodiated ions to compensate for possible variation in adduct formation due to varying biological sodium levels.
With respect to Table 2, semi-quantitative MS analysis was performed to compare enriched AMEND preparations from control T84 cells to those with shRNA-mediated P-gp knockdown (B4-mdr1a and B5-mdr1a).

[1] = tested on: neutrophil migration across NIH-H292 cells infected with Streptococcus pneumoniae; experiment: In vitro PMN transepithelial migration across H292 monolayers infected with S. pneumoniae; assay type: cell-based, human; conditions: 100 μM pretreatment before infection with 10 MOI Streptococcus pneumoniae, vs mock-treated (FIG. 19A, FIG. 20D)
Experimental: S. pneumoniae can induce PMN transepithelial migration across model lung epithelia where a well-established in vitro model system is utilized. Briefly, H292 cells are seeded on permeable supports to form a barrier, thereby mimicking the in vivo architecture. Freshly isolated human neutrophils are then applied to the basolateral chamber of the transwell, allowing the neutrophils to transverse the epithelial layer in response to chemoattractants released by the epithelium.
Using an in vitro model of neutrophil (PMN) migration, we examined the results of MRP2 inhibition. NIH-H292 cells were incubated with 100 μM of the MRP2 inhibitor Probenecid (horizontal striped) or mock treated with PBS (black) before infection. Both control and probenecid treated cells were then washed and infected with 10 MOI Streptococcus pneumoniae. Neutrophils were placed in the basolateral chamber of the membrane construct and allowed to migrate post-infection. Neutrophils that have traveled to the apical chamber were quantified with a modified myeloperoxidase assay against a standard number of neutrophils. Shown in FIG. 20D is a representative data set that has been repeated at least 3 times. […] Uninfected cells are represented in white, labeled “Buffer”. Statics performed using unpaired T-test.

[2] = tested on: C57BL/6 mice infected with Streptococcus pneumoniae; experiment: S. pneumoniae lung infection of mice with MRP2 inhibition; assay type: in vivo
Experimental: FIGS. 19A-19E. MRP2 inhibition in vivo. Using an in vitro model of neutrophil migration, we examined the results of MRP2 inhibition. MRP2 inhibition via Probenecid treatment results in a reduction of neutrophils migrating in a basolateral-to-apical direction (FIG. 19A). Following this in vitro result, C57/B16 mice were treated with either PBS or Probenecid and subsequently infected with Streptococcus pneumoniae. Mice treated with probenecid had fewer Cd11b-positive/Ly6g-positive cells (neutrophils) in the bronchoalveolar lavage (BAL) isolated from infected lungs (FIG. 19B).
S. pneumoniae infection under conditions where MRP2 function was impeded with probenecid was examined. C57BL/6 mice were infected with between 1×10^5 and 3×10^5 bacteria via the trachea, leading to lobar pneumonia and progressing to bacteremia and sepsis, after which the mice succumb to infection. Probenecid was delivered 3 hours prior to infection as a primer and again at 3-hours post-infection.

[3] = tested on: HXA3-induced neutrophil migration; experiment: 96-well neutrophil migration assay (modified Boyden chamber, cell-free); assay type: cell-based, human; conditions: for AMEND inhibitory activity of purified compounds in the cell-free migration assay: FIG. 2F
Experimental: Supernatants from T84 epithelial monolayers were enriched for lipids and tested for ability to inhibit HXA3-induced migration in a 96-well modified Boyden chamber assay (FIG. 2A). In order to compare across experiments with different donors, migration values within individual experiments were normalized to enriched HXA3 with vehicle treatment. […] FIG. 2C performed as in FIG. 2A, but prior to use in the migration assays enriched T84 supernatants were pretreated with FAAH or MAGL at 37 °C for 30 min. […] Commercially available endocannabinoids and related compounds were tested in the 96 well migration assay (FIG. 2F). Compounds were used at the highest concentration at which they were soluble in PBS. Data are mean+/−SEM of at least 3 independent experiments, *=p<0.05 and **=p<0.01 by one-way ANOVA.
96-well neutrophil migration.
Purified compounds used in migration assays.

MRP1 = MRP1 (Homo sapiens, UniProt P33527); conditions: low affinity substrate of MRP1; cited from earlier work
Sequence of MRP1 (P33527 whole entry): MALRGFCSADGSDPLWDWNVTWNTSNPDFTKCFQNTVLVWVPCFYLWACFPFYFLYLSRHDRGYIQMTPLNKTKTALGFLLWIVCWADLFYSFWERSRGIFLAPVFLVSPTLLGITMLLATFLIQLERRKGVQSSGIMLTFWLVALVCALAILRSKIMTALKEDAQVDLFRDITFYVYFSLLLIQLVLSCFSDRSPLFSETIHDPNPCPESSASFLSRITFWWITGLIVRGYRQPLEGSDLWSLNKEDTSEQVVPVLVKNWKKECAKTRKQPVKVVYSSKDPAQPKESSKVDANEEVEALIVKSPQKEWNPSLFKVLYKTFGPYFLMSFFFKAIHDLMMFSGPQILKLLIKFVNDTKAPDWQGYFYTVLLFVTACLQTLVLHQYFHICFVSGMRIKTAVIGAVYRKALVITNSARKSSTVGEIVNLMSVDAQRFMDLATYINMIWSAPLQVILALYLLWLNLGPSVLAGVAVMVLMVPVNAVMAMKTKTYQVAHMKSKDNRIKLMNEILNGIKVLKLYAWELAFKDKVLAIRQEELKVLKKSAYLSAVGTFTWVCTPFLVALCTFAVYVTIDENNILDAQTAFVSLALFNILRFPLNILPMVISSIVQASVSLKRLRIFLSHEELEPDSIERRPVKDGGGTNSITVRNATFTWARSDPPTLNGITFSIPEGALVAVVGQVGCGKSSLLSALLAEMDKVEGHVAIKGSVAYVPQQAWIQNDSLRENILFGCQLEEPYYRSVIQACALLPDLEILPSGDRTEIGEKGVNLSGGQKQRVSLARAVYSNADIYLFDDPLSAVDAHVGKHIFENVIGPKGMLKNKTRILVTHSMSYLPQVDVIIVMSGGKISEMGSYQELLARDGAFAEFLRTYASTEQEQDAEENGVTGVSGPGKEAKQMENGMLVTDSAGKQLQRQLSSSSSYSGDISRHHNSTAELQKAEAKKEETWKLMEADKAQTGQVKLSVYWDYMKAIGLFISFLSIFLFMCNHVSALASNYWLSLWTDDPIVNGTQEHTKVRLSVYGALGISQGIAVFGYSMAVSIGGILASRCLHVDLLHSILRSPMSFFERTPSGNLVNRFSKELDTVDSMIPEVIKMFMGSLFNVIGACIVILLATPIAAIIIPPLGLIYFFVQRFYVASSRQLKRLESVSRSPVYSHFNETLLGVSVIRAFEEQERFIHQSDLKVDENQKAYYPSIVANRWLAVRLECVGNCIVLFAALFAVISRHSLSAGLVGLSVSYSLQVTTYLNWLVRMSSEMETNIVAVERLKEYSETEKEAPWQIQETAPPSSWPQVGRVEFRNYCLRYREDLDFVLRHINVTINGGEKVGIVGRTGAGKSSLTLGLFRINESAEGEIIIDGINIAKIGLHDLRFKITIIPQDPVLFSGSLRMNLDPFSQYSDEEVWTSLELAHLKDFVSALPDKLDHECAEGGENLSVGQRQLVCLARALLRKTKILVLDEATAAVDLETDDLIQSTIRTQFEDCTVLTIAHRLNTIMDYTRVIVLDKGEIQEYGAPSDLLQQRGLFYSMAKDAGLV

[4] = B4-mdr1a P-gp knockdown T84 cells
[5] = B4-mdr1a P-gp knockdown vs control T84 cells
[6] = B5-mdr1a P-gp knockdown T84 cells
[7] = B5-mdr1a P-gp knockdown vs control T84 cells
[8] = used at 0.01 mg/mL (highest concentration soluble in PBS, diluted 1:10)

Sequence of P-gp (P08183 whole entry): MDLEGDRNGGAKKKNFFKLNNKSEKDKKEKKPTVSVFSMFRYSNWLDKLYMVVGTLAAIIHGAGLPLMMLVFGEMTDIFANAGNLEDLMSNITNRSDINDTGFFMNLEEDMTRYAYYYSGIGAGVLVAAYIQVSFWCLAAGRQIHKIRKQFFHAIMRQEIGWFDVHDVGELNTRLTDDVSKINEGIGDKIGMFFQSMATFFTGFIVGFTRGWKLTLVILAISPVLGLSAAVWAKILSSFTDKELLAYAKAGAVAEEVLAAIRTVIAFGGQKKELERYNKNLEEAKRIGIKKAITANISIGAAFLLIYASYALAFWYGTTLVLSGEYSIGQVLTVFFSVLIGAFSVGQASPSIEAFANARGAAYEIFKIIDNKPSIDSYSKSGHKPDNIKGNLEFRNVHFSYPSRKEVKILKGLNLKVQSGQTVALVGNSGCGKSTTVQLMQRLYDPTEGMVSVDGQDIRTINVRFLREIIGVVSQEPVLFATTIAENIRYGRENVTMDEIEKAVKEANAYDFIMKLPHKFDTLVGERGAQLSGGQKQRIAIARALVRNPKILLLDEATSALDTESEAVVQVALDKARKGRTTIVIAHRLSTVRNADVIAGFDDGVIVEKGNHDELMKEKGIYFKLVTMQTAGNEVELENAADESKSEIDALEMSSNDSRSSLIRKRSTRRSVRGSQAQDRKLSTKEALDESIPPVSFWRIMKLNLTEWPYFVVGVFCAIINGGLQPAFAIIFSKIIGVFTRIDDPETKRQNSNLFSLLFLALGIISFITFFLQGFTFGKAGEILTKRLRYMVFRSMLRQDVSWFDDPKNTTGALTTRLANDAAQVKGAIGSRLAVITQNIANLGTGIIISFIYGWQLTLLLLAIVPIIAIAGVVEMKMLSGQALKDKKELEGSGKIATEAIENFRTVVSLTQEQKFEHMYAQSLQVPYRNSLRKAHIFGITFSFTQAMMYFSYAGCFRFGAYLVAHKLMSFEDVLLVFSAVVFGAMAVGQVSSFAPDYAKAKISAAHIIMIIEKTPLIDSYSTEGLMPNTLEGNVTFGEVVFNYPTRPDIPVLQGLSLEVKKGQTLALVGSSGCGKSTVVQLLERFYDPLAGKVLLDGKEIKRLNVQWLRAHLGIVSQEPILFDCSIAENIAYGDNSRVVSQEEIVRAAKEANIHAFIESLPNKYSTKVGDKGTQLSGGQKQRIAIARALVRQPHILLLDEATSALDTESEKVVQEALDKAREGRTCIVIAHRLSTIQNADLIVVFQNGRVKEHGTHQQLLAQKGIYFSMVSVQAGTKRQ

**Q.** Which “Average (relative abundance, normalized to anandamide-d8 standard)” value (P-gp; [4]) does the source give for `CCCCC/C=C\C/C=C\C/C=C\C/C=C\CCCCOC(CO)CO` [Noladin ether] here?
**A.** The value was 154.03.

**Q.** And the “% of Control” value (P-gp; [5])?
**A.** Its value is 461%.

**Q.** And the “Average (relative abundance, normalized to anandamide-d8 standard)” value (P-gp; [6])?
**A.** Its value is 56.23.

**Q.** What about the “% of Control” value (P-gp; [7]) of the same compound?
**A.** The value was 168%.

**Q.** And the “Average (relative abundance, normalized to anandamide-d8 standard)” value (P-gp; control T84 cells)?
**A.** The value was 33.43.

**Q.** Which results are given for `CCCCC/C=C\C/C=C\C/C=C\C/C=C\CCCC(=O)OC(CO)CO` [2-Arachidonoyl Glycerol (2-AG), 2-arachidonoyl glycerol]?
**A.** Average (relative abundance, normalized to anandamide-d8 standard) (P-gp; [4]): 32.17; % of Control (P-gp; [5]): 91%; Average (relative abundance, normalized to anandamide-d8 standard) (P-gp; [6]): 29.47; % of Control (P-gp; [7]): 83%; Average (relative abundance, normalized to anandamide-d8 standard) (P-gp; control T84 cells): 35.53

**Q.** Which “Average (relative abundance, normalized to anandamide-d8 standard)” value (P-gp; [4]) does the source give for `CCCCC/C=C\C/C=C\C/C=C\C/C=C\CCCC(=O)NCCc1ccc(O)c(O)c1` [N-Arachidonoyl Dopamine] here?
**A.** Its value is 1.97.

**Q.** What about the “Average (relative abundance, normalized to anandamide-d8 standard)” value (P-gp; [6]) of the same compound?
**A.** The value was 1.90.

**Q.** What about the “Average (relative abundance, normalized to anandamide-d8 standard)” value (P-gp; control T84 cells) of the same compound?
**A.** The value was 0.00.

**Q.** What does the source list for `CCCN(CCC)S(=O)(=O)c1ccc(C(=O)O)cc1` [Probenecid]?
**A.** number of neutrophils migrating basolateral-to-apical across infected H292 monolayers [1]: effectively reduced; number of neutrophils migrating basolateral-to-apical across infected H292 monolayers ([1]; listed as probenecid): significantly fewer; reduction in bacteremia ([2]; 48 post-infection, no longer statistically significant (FIG. 19C)): 10 fold; number of bacteria in the lung ([2]; 48 hours post-infection): the same; other granulocytes in the mouse lung ([2]; Cd11b+/Cd45+/Ly6g- granulocytes (FIG. 19D)): no reduction; lower CFU in the blood of mice that developed bacteremia, compared to PBS-treated mice ([2]; D1 post-infection (FIG. 19C)): approximately 10 fold; cases of bacteremia ([2]; D1 post-infection, vs PBS-treated mice (FIG. 19C)): fewer cases; fewer neutrophils in bronchoalveolar lavage fluid (BALF) than PBS-treated mice ([2]; Day 1 post-infection, delivered 3 hours prior to and 3 hours post-infection (FIG. 19B)): 35%; difference in the bacterial CFU in mice that did not develop bacteremia ([2]; failed to reach statistical significance (FIG. 19E)): approximately 2 fold

**Q.** With `CCCCCCCC/C=C\CCCCCCCC(=O)NCCO` [Oleoyl ethanolamide (OEA), Oleoyl ethanolamide] as the compound, how does the “AMEND inhibitory activity of purified compounds in the cell-free migration assay” value [3, 8] read?
**A.** The value was “significant inhibitory activity”.

**Q.** With `CCCCC[C@H](O)/C=C/C=C\C=C\C=C\[C@@H](O)[C@@H](O)CCCC(=O)O` [Lipoxin A4] as the compound, how does the “inhibitory activity on HXA3-induced migration after treatment with FAAH” value ([3]; pretreated with FAAH at 37°C for 30 min, Lipoxin used at 10 nM (FIG. 2C, FIG. 8)) read?
**A.** Its value is “not sensitive”.

**Q.** What about the “inhibitory activity on HXA3-induced migration after treatment with MAGL” value ([3]; pretreated with MAGL at 37°C for 30 min, Lipoxin used at 10 nM (FIG. 2C, FIG. 8)) of the same compound?
**A.** The value was “not sensitive”.

**Q.** With `N[C@@H](CCC(=O)N[C@@H](CS)C(=O)NCC(=O)O)C(=O)O` [Glutathione] as the compound, how does the Km (MRP1) read?
**A.** Its Km is 1000 to 5000 µM.

**Q.** With `CCCCC/C=C\C/C=C\C/C=C\C/C=C\CCCC(=O)NCCO` [Anandamide (AEA), Arachidonoyl ethanolamide] as the compound, how does the “AMEND inhibitory activity of purified compounds in the cell-free migration assay” value [3, 8] read?
**A.** The value was “significant inhibitory activity”.

**Q.** For `CC/C=C\C/C=C\C/C=C\CCCCCCCC(=O)NCCO` [α-LEA, α-Linolenoyl Ethanolamide], which “AMEND inhibitory activity of purified compounds in the cell-free migration assay” value ([3]; used at 0.005 mg/mL (highest concentration soluble in PBS, diluted 1:10)) is on record?
**A.** Its value is “significant inhibitory activity”.
